The text below walks through data of patent US8722072B2, “Acaricidal and/or insecticidal active ingredient combinations” (priority 2010, dated 2014).

Holding throughout (type): in vivo
Test [1] concerns whitefly (Bemisia tabaci). Briefly: Example 10: Bemisia tabaci - test on cotton. The note with it: cotton plants, spray. As for the experimental part:
Bemisia tabaci—Test on Cotton
(§1) • Solvent: 7 parts by weight of dimethylformamide • Emulsifer: 2 parts by weight of alkylaryl polyglycol ether
(§2) An appropriate preparation of active ingredient is prepared by mixing 1 part by weight of active ingredient with the stated amounts of solvent and emulsifier and diluting the concentrate with emulsifier-containing water to the desired concentration.
Cotton plants (Gossypium hirsutum) infested with whitefly (Bemisia tabaci) are treated by being sprayed with the preparation of active ingredient at the desired concentration.
(§3) After the desired time, the destruction is determined in %. 100% here means that all of the whitefly have been killed; 0% means that no whitefly have been killed. The destruction figures ascertained are calculated by the Colby formula.

In test [2] the test system is Tetranychus urticae. Briefly: Example 1: field test on aubergines against Tetranychus urticae. The conditions noted are these: for Destruction (% Abbott) 1 day: 1 day after treatment; for Destruction (% Abbott) 55 days: 55 days after treatment; for Destruction (% Abbott) 45 days: 45 days after treatment. The method, then: In plots measuring approximately 14 m^2, aubergines (around 11 weeks after planting out) of the cultivar “Heilongchangqie” are treated in three replications against Tetranychus urticae. Application takes place using a sprayer. […] The water application rate is 450 l/ha.
Evaluation is made 1 day and 55 days after treatment, by scoring the destruction of the eggs on the leaves.
A further evaluation is made 45 and 55 days after treatment, by scoring the destruction of the nymphs on the leaves.

The test system of test [3] is Tetranychus urticae. Briefly: Example 2: field test on roses (Blizard) against Tetranychus urticae. The note with it: adults on leaves, 3 days after treatment. The method, then: In plots measuring approximately 6 m^2, roses of the cultivar “Blizard” with an age of approximately 3 years are treated in three replications against Tetranychus urticae. Application takes place using a back-mounted spray (3.5 bar). […] The water application rate is 1320 l/ha. Evaluation is made 3 days after treatment, by counting the adults on the leaves/square inch. Subsequently, the activity is calculated as a percentage by the method of Henderson and Tilton.

For test [4], the system named is Tetranychus urticae. Kind of test: Example 6: field test on aubergines (Suqi qie) against Tetranychus urticae, ready-prepared mixture 20:1. The note with it: for Destruction (% Abbott) 21 days (eggs) / Destruction (% Abbott) 21 days (males) / Destruction (% Abbott) 21 days (population): 21 days after treatment; for Destruction (% Abbott) 1 day: males on leaves, 1 day after treatment; for Destruction (% Abbott) 21 days (population): total population. As for the experimental part:
In plots measuring approximately 8 m^2, aubergines (growth stage 15) of the cultivar “Suqi qie” are treated in three replications against Tetranychus urticae. Application takes place using a back-mounted sprayer. […] The water application rate is 450 l/ha.
Evaluation is made 1 day after treatment, by scoring the destruction of the males on the leaves.
A further evaluation is made 21 days after treatment, by scoring the destruction of the eggs, the destruction of the males, and the total population on the leaves.

The subject of test [5] is whitefly (Bemisia tabaci). Kind of test: Example 11: Bemisia tabaci - test on cabbage. The conditions noted are these: cabbage plants, spray. The method, then: Bemisia tabaci—Test on Cabbage
as §1, §2
Cabbage plants (Brassica oleracea) infested with whitefly (Bemisia tabaci) are treated by being sprayed with the preparation of active ingredient at the desired concentration.
as §3

For the next test, the system named is Hemitarsonemus latus. Kind of test: Example 7: field test on bell peppers against Hemitarsonemus latus. The note with it: adults on leaves, 2 days after treatment. As for the experimental part:
In plots measuring approximately 6 m^2, bell peppers of the cultivar “California Wonder” (growth stage 75) are treated in three replications against Hemitarsonemus latus. Application takes place using a sprayer at 2.5 bar pressure. […] The water application rate is 300 l/ha.
Evaluation is made 2 days after treatment, by scoring the destruction of the adults on the leaves.

The subject of test [6] is Tetranychus urticae. Briefly: Example 4: field test on cotton plants against Tetranychus urticae. The conditions noted are these: population on leaves, 13 days after treatment. As for the experimental part: In plots measuring approximately 15 m^2, cotton plants of the cultivar “BRS Aroeira” with a height of approximately 80 cm are treated in three replications against Tetranychus urticae. Application takes place using a spray at 2.5 bar. […] The water application rate is 200 l/ha.
Evaluation is made 13 days after treatment, by scoring the destruction of the population on the leaves.

The test system of test [7] is Tetranychus urticae. Kind of test: Example 3: field test on tomatoes against Tetranychus urticae. The conditions noted are these: adults on leaves, 3 days after treatment. As for the experimental part: In plots measuring approximately 6 m^2, tomatoes of the cultivar “Leader” are treated in three replications against Tetranychus urticae. Application takes place using a back-mounted spray (4.5 bar). […] The water application rate is 1000 l/ha.
Evaluation is made 3 days after treatment, by scoring the destruction of the adults on the leaves.

The subject of test [8] is Tetranychus urticae. Briefly: Example 5: field test on roses (Freedom) against Tetranychus urticae. The conditions noted are these: population on leaves, 1 day after treatment. As for the experimental part:
In plots measuring approximately 14 m^2, roses (growth stage 46) of the cultivar “Freedom” in double rows are treated in three replications against Tetranychus urticae. Application takes place using a back-mounted spray. In this example, the mixture of the active ingredients Oberon, Example (I), and abamectin, Example (VI), is tested against the commercial standards abamectin (018 EC) and Oberon (240 SC) at the stated application rates and in the stated mixing ratios. The water application rate is 1000 l/ha.
Evaluation is made 1 day after treatment, by scoring the destruction of the population on the leaves.

The test system of test [9] is two-spotted spider mite (Tetranychus urticae). Briefly: Example 8: Tetranychus urticae - test on cotton. The conditions noted are these: cotton plants, spray. As for the experimental part:
Tetranychus urticae—Test on Cotton
• Solvent: 7 parts by weight of dimethylformamide • Emulsifier: 2 parts by weight of alkylaryl polyglycol ether
as §2
Cotton plants (Gossypium hirsutum) infected with the two-spotted spider mite (Tetranychus urticae) are treated by being sprayed with the preparation of active ingredient in the desired concentration.
After the desired time, a determination is made of the destruction in %. 100% here means that all of the mites have been killed; 0% means that no mites have been killed. The destruction figures ascertained are calculated by the Colby formula.

Test [10] deals with Frankliniella occidentalis. Kind of test: Example 9: field test on bell peppers against Frankliniella occidentalis. The conditions noted are these: for Destruction (% Abbott) 7 days: adults in the flowers, 7 days after the second treatment; for Destruction (% Abbott) 14 days: mixed population in the flowers, 14 days after the second treatment. As for the experimental part: In plots measuring approximately 10 m^2, bell peppers of the cultivar “Italiano verde” are treated in three replications against Frankliniella occidentalis. Application is made using a back-mounted spray (10 bar). […] The water application rate is 750 l/ha. Two applications are carried out, at an interval of 7 days.
Evaluation is made 7 days after the second treatment, by scoring the destruction of the adults in the flowers.
Evaluation is made 14 days after the second treatment, by scoring the destruction of the mixed population in the flowers.

Test [11] has as its system larvae of the seven-spotted ladybird (Coccinella septempunctata). Kind of test: Example 13: Coccinella septempunctata larvae - test on plums (beneficial species). The note with it: plum leaves, spray. As for the experimental part: Coccinella septempunctata/Larvae—Test on Plums
An appropriate solution for application is prepared by diluting the respective formulation to the desired concentration.
Plum leaves colonized by larvae of the seven-spotted ladybird (Coccinella septempunctata) are treated by being sprayed with the application solution at the desired concentration.
After the desired time, the destruction is determined in %. 100% here means that all of the ladybird larvae have been killed; 0% means that no ladybird larvae have been killed. The destruction figures ascertained are calculated by the Colby formula.

The mark [12] stands for this setting: nymphs on leaves, 120 g a.i./ha.

For the compound `Cc1cc(C)c(C2=C(OC(=O)CC(C)(C)C)C3(CCCC3)OC2=O)c(C)c1` [Oberon (I), Spiromesifen], the “Destruction in % after 7d” value in [1] (120 g ai/ha) is 70%. In the test on Tetranychus urticae [2] (eggs on leaves, 120 g a.i./ha), the “Destruction (% Abbott) 1 day” value was 26.7 % Abbott and the “Destruction (% Abbott) 55 days” value is reported as 0 % Abbott. In addition, in the test with Tetranychus urticae [2] (setting [12]), the “Destruction (% Abbott) 45 days” value was 14.8 % Abbott and the “Destruction (% Abbott) 55 days” value is recorded as 24.1 % Abbott. The “Activity (% H. + T.) 3 days” value in the test with Tetranychus urticae [3] (105 g a.i./ha) is 32.2 % H. + T. The “Activity (% H. + T.) 3 days” value in the test with Tetranychus urticae [3] (210 g a.i./ha) is 40.7 % H. + T. Besides, in the test with Tetranychus urticae [4] (120 g a.i./ha), the “Destruction (% Abbott) 21 days (eggs)” value is listed as 0 % Abbott, the “Destruction (% Abbott) 1 day” value is listed as 0 % Abbott, the “Destruction (% Abbott) 21 days (males)” value is listed as 5 % Abbott and the “Destruction (% Abbott) 21 days (population)” value worked out at 1.9 % Abbott. The “Destruction in % after 9d” value in [5] (150 g ai/ha) came to 55%. Also, in the test on Hemitarsonemus latus (120 g a.i./ha), the “Destruction (% Abbott) 2 days” value is 50 % Abbott. Also, the “Destruction (% Abbott) 13 days” value in the test on Tetranychus urticae [6] (120 g a.i./ha) is 58.5 % Abbott. In addition, in the test on Tetranychus urticae [7] (120 g a.i./ha), the “Destruction (% Abbott) 3 days” value is on record as 25.0 % Abbott. Further, the “Activity (% Abbott) 1 day” value in the test with Tetranychus urticae [8] (120 g a.i./ha) was found to be 32.4 % Abbott. Further, in [9] (100 g ai/ha), the “Destruction in % after 3d” value was found to be 30%. Besides, in test [10] (105 g a.i./ha), the “Destruction (% Abbott) 7 days” value was 3.3 % Abbott and the “Destruction (% Abbott) 14 days” value was determined as 0 % Abbott. Besides, in [10] (210 g a.i./ha), the “Destruction (% Abbott) 14 days” value is given as 0 % Abbott. Also, the “Destruction in % after 3d” value in test [11] (60 g ai/ha) came out at 3%. Besides, the “Destruction in % after 3d” value in test [11] (120 g ai/ha) amounted to 10%.
As to abamectin [Abamectin (VI)], in [1] (6 g ai/ha), the “Destruction in % after 7d” value is listed as 0%. The “Destruction (% Abbott) 1 day” value stood at 19.8 % Abbott with Tetranychus urticae [2] (eggs on leaves, 10 g a.i./ha) and 33.3 % Abbott in the test with Tetranychus urticae [4] (10 g a.i./ha). Besides, the “Destruction (% Abbott) 55 days” value in the test on Tetranychus urticae [2] (eggs on leaves, 10 g a.i./ha) was 0 % Abbott; in the test with Tetranychus urticae [2] (nymphs on leaves, 10 g a.i./ha) it was 0 % Abbott. Moreover, in the test with Tetranychus urticae [2] (nymphs on leaves, 10 g a.i./ha), the “Destruction (% Abbott) 45 days” value stood at 0 % Abbott. In addition, the “Activity (% H. + T.) 3 days” value in the test on Tetranychus urticae [3] (10.5 g a.i./ha) and with Tetranychus urticae [3] (21 g a.i./ha) was 0 % H. + T in each case. Moreover, the “Destruction (% Abbott) 21 days (eggs)” value in the test with Tetranychus urticae [4] (10 g a.i./ha) was 0 % Abbott. Further, the “Destruction (% Abbott) 21 days (males)” value with Tetranychus urticae [4] (10 g a.i./ha) is 45 % Abbott. Also, the “Destruction (% Abbott) 21 days (population)” value in the test with Tetranychus urticae [4] (10 g a.i./ha) came out at 47.6 % Abbott. Further, the “Destruction in % after 9d” value in [5] (6 g ai/ha) and in test [5] (15 g ai/ha) was 0% each time. In addition, the “Destruction (% Abbott) 2 days” value with Hemitarsonemus latus (10 g a.i./ha) was determined as 0 % Abbott. Besides, in the test with Tetranychus urticae [6] (7.2 g a.i./ha), the “Destruction (% Abbott) 13 days” value was 16.5 % Abbott. The “Destruction (% Abbott) 3 days” value in the test on Tetranychus urticae [7] (10 g a.i./ha) is given as 45.8 % Abbott. For the same compound, in the test with Tetranychus urticae [8] (6 g a.i./ha), the “Activity (% Abbott) 1 day” value is on record as 27 % Abbott. For the same compound, the “Destruction in % after 3d” value in test [9] (4 g ai/ha) stood at 10%; in test [11] (3 g ai/ha), 63%; in test [11] (6 g ai/ha), 100%. Moreover, in test [10] (10.5 g a.i./ha), the “Destruction (% Abbott) 7 days” value stood at 0 % Abbott. The “Destruction (% Abbott) 14 days” value worked out at 0 % Abbott in test [10] (10.5 g a.i./ha) and 2.0 % Abbott in test [10] (21 g a.i./ha).
